Test results from PMC6522510 (Nature Communications, 2019).

Columns and labels:
Set-up in all cases: species or system AML cell lines (8); Primary HTS, single concentration about 10 uM, Cell Titer Glo viability; log10 luminescence, per cent inhibition relative to cycloheximide control
Details in all cases: 72 h, relative to cycloheximide control, log10 luminescence; inhibitor
U937 = tested on: U937
CHRF288-11 = tested on: CHRF288-11
MV4-11 = tested on: MV4-11
CMK = tested on: CMK
ML-2 = tested on: ML-2
MOLM-13 = tested on: MOLM-13
CMS = tested on: CMS
M07e = tested on: M07e

| Structure (SMILES) | U937 %inh (U937) | CHRF288-11 %inh (CHRF288-11) | MV4-11 %inh (MV4-11) | CMK %inh (CMK) | ML-2 %inh (ML-2) | MOLM-13 %inh (MOLM-13) | CMS %inh (CMS) | M07e %inh (M07e) |
| --- | --- | --- | --- | --- | --- | --- | --- | --- |
| O=C1NC(=O)C(c2c[nH]c3ccccc23)=C1c1ccccc1 [SJ000581075-1] | 2.672% | 16.2% | 1.744% | -2.624% | 1.922% | -2.51% | -0.679% | 3.019% |
| Nc1c(C(=O)c2cccc(-c3ccncc3)c2)cnn1-c1ccc(F)cc1F [SJ000581077-1] | 32.29% | 21.24% | 3.251% | 75.1% | 15.89% | 13.91% | 10.55% | 29.92% |
| Cn1cc(C2=C(c3cn(C)c4cc(Cl)ccc34)C(=O)NC2=O)c2ccccc21 [SJ000581078-1] | 87.46% | 127% | 84.42% | 127.5% | 61.36% | 85.69% | 103.6% | 100% |
| Cc1ccc2c(c1)c(C1=C(c3cn(C)c4ccccc34)C(=O)NC1=O)cn2C [SJ000581079-1] | 21.19% | 31.79% | 11.84% | 50.85% | 12.05% | 61.76% | 12.87% | 21.17% |
| Cn1cc(C2=C(c3c4n(c5ccccc35)CCNC4)C(=O)NC2=O)c2ccccc21 [SJ000581080-1] | 18.44% | 19.49% | 15.28% | 60.56% | 12.57% | 62.95% | 16.83% | 25.69% |
| COc1ccc(OC)c(C2=C(c3cn(C)c4ccccc34)C(=O)NC2=O)c1 [SJ000581081-1] | -0.9957% | 7.567% | 1.033% | 3.003% | -0.4206% | -2.282% | 0.8246% | 2.921% |
| COc1ccc2c(C3=C(c4cn(C)c5ccccc45)C(=O)NC3=O)cn(C)c2c1 [SJ000581082-1] | 79.84% | 125.3% | 77.51% | 107.7% | 51.13% | 81.86% | 102.2% | 103.9% |
| O=[N+]([O-])c1ccc2c(c1)C(c1ccccc1Cl)=Nc1cn[nH]c1N2 [SJ000581083-1] | -1.165% | -0.2746% | 0.3353% | -5.045% | -0.08337% | -2.48% | -0.274% | 4.12% |
| Cn1cc(C2=C(c3cn(C)c4c(N)cccc34)C(=O)NC2=O)c2ccccc21 [SJ000581084-1] | 30.59% | 31.5% | 35.68% | 34.34% | 31.97% | 57.26% | 26.64% | 30.04% |
| COC[C@H](N=C1NC(=O)/C(=C/c2ccc3ncccc3c2)S1)c1ccccc1 [SJ000581086-1] | 4.246% | 2.677% | -0.3199% | 5.986% | 2.549% | -1.579% | 4.472% | 15.62% |
| Fc1ccc(-c2c(-c3ccncc3)[nH]c3cccnc23)cc1 [SJ000581088-1] | 1.73% | 1.888% | 0.5271% | -0.07997% | -1.446% | -2.723% | 0.767% | 3.19% |
